From patent US8729098B2, “Tertiary 8-hydroxyquinoline-7-carboxamide derivatives and uses thereof” (Polichem SA, priority 2009, dated 2014)
Values after ≈ are worked out from the molar mass of the structure shown.

Assays:
[1] = test system: Candida Albicans (ATCC 90028); assay: Broth micro-dilution antifungal susceptibility test (MIC); format: cell-based; conditions: ATCC90028, RPMI 1640 pH 7, 48 h at 35° C., geometric mean of two experiments
Procedure: (§1) Trichophyton Rubrum (ATCC 28188, PBI International), Trichophyton Mentagrophytes (ATCC 9533, PBI International), Aspergillus Niger (ATCC 16404, PBI International), Scopulariopsis Brevicaulis (ATCC 36840, DSMZ), Candida Albicans (ATCC 90028, PBI International), Candida Glabrata (ATCC 90030, DSMZ).
(§2) Strains were prepared from freeze-dried ampoules or freeze-dried pellets. An isolation of the suspensions was made on Potato Dextrose Agar (PDA) to test the strains purity. A strains' massive growth was then made streaking microbial suspensions on PDA plates.
(§3) Incubation was at 30° C. for 48-72 hours (Candida yeasts) and for 7-10 days (filamentous fungi).
(§4) The yeasts' colonies and the filamentous fungi's conidia were harvested with 3-5 mL of RPMI 1640+50% glycerol and the aliquots frozen at −80° C.
(§5) Compounds' minimal inhibition concentration (MIC) was determined through broth micro-dilution susceptibility test using a method developed in agreement with the National Committee for Clinical Laboratory Standards (NCCLS) (National Committee for Clinical Laboratory Standards. Reference Method for Broth Dilution Antifungal Susceptibility Testing of Yeasts; Approved standard-Second Edition M27-A2. 2002; Vol. 22, No. 15) (National Committee for Clinical Laboratory Standards. Reference Method for Broth Dilution Antifungal Susceptibility Testing of Filamentous Fungi; Approved standard M38-A. 2002; Vol. 22, No. 16).
(§6) Assays were carried out in RPMI 1640 with L-glutamine medium buffered to pH 7 with 0.165M 3-(N-morpholino)propanesulfonic acid (MOPS) and 10M NaOH and supplemented with 18 g glucose/litre. The tests were performed using 96 well sterile plates (inoculum size of 1×10^5 CFU/mL). Compounds stock solutions were prepared at 12.8 mg/mL in 100% DMSO. A series of twofold dilutions were prepared in plate using RPMI 1640. Final concentrations ranged from 0.125 to 128 μg/mL at 1% DMSO.
(§7) MIC is defined as the lowest concentration of antifungal agent which prevents any visible growth and was determined after 48 h of incubation for yeasts (35° C.) and after five days of incubation for filamentous fungi (35° C.).

[2] = test system: Candida Glabrata (ATCC 90030); assay: as above; format: cell-based; conditions: Nakaseomyces glabratus, ATCC90030; RPMI 1640 pH 7, 48 h at 35° C.; geometric mean of two experiments
Procedure: as §1, §2, §3, §4, §5, §6, §7

[3] = test system: Scopulariopsis Brevicaulis (ATCC 36840); assay: as above; format: cell-based; conditions: ATCC36840, 120 h, RPMI 1640 pH 7, five days at 35° C., geometric mean of two experiments
Procedure: as §1, §2, §3, §4, §5, §6, §7

[4] = test system: Aspergillus Niger (ATCC 16404); assay: as above; format: cell-based; conditions: ATCC16404, 120 h, RPMI 1640 pH 7, five days at 35° C., geometric mean of two experiments
Procedure: as §1, §2, §3, §4, §5, §6, §7

[5] = test system: Trichophyton Rubrum (ATCC 28188); assay: as above; format: cell-based; conditions: ATCC28188, 120 h, RPMI 1640 pH 7, five days at 35° C., geometric mean of two experiments, read-out: MIC Trycophyton Rubrum ATCC 28188
Procedure: as §1, §2, §3, §4, §5, §6, §7

[6] = test system: Trichophyton Mentagrophytes (ATCC 9533); assay: as above; format: cell-based; conditions: ATCC9533, 120 h, RPMI 1640 pH 7, five days at 35° C., geometric mean of two experiments, read-out: MIC Tricophyton Mentagrophytes ATCC 9533
Procedure: as §1, §2, §3, §4, §5, §6, §7

invasive aspergillosis = conditions: daily administered at 10 mg/kg; cited from earlier work

MIC [1] [µg/mL] | MIC [2] [µg/mL] | MIC [3] [µg/mL] | MIC [4] [µg/mL] | MIC [5] [µg/mL] | MIC [6] [µg/mL] | Compound | rate of nephrotoxicity (invasive aspergillosis) [%]
2 (≈ 6.89 µM) | 2 (≈ 6.89 µM) | 2 (≈ 6.89 µM) | 0.25 (≈ 0.861 µM) | 1 (≈ 3.44 µM) | 2 (≈ 6.89 µM) | O=C(c1ccc2cccnc2c1O)N1Cc2ccccc2C1 [Example 10, (8-Hydroxyquinolin-7-yl)(isoindolin-2-yl)methanone] | –
2 (≈ 5.71 µM) | 2.83 (≈ 8.08 µM) | 1 (≈ 2.85 µM) | 0.25 (≈ 0.713 µM) | 0.71 (≈ 2.03 µM) | 1.41 (≈ 4.02 µM) | O=C(c1ccc2cccnc2c1O)N1C2CCCCC2C2CCCCC21 (stereo not shown) [Example 49, (Decahydro-1H-carbazol-9(9aH)-yl)(8-hydroxyquinolin-7-yl)methanone] | –
1.41 (≈ 4.31 µM) | 2 (≈ 6.12 µM) | 2 (≈ 6.12 µM) | 0.71 (≈ 2.17 µM) | 2 (≈ 6.12 µM) | 1 (≈ 3.06 µM) | CN(Cc1ccc(Cl)cc1)C(=O)c1ccc2cccnc2c1O [Example 56, N-(4-Chlorobenzyl)-8-hydroxy-N-methylquinoline-7-carboxamide] | –
2 (≈ 6.53 µM) | 2 (≈ 6.53 µM) | 0.71 (≈ 2.32 µM) | 0.18 (≈ 0.588 µM) | 1 (≈ 3.26 µM) | 1.41 (≈ 4.6 µM) | O=C(c1ccc2cccnc2c1O)N1CCOc2ccccc21 [Example 74, (2H-Benzo[b][1,4]oxazin-4(3H)-yl)(8-hydroxyquinolin-7-yl)methanone] | –
4 (≈ 11.2 µM) | 4 (≈ 11.2 µM) | 2 (≈ 5.6 µM) | 0.13 (≈ 0.364 µM) | 2 (≈ 5.6 µM) | 1 (≈ 2.8 µM) | CN(C(=O)c1ccc2cccnc2c1O)c1ccc(Br)cc1 [Example 29, N-(4-Bromophenyl)-8-hydroxy-N-methylquinoline-7-carboxamide] | –
– | – | – | – | – | – | C[C@@H]1[C@H](O)[C@@H](C)/C=C/C=C/C=C/C=C/C=C/C=C/C=C/[C@H](O[C@@H]2O[C@H](C)[C@@H](O)[C@H](N)[C@@H]2O)C[C@@H]2O[C@](O)(C[C@@H](O)C[C@@H](O)[C@H](O)CC[C@@H](O)C[C@@H](O)CC(=O)O[C@H]1C)C[C@H](O)[C@H]2C(=O)O [Amphotericin B] | 31
2 (≈ 6.2 µM) | 2 (≈ 6.2 µM) | 0.5 (≈ 1.55 µM) | 0.25 (≈ 0.776 µM) | 1 (≈ 3.1 µM) | 2 (≈ 6.2 µM) | O=C(c1ccc2cccnc2c1O)N1CCCc2cc(F)ccc21 [Example 72, (6-Fluoro-3,4-dihydroquinolin-1(2H)-yl)(8-hydroxyquinolin-7-yl)methanone] | –
2 (≈ 6.2 µM) | 2.83 (≈ 8.78 µM) | 0.71 (≈ 2.2 µM) | 0.25 (≈ 0.776 µM) | 1 (≈ 3.1 µM) | 2 (≈ 6.2 µM) | O=C(c1ccc2cccnc2c1O)N1CCCc2c(F)cccc21 [Example 71, (5-Fluoro-3,4-dihydroquinolin-1(2H)-yl)(8-hydroxyquinolin-7-yl)methanone] | –
2 (≈ 5.88 µM) | 1 (≈ 2.94 µM) | 1 (≈ 2.94 µM) | 0.25 (≈ 0.735 µM) | 1 (≈ 2.94 µM) | 2 (≈ 5.88 µM) | O=C(c1ccc2cccnc2c1O)N1CCCc2c(F)cc(F)cc21 [Example 70, (5,7-Difluoro-3,4-dihydroquinolin-1(2H)-yl)(8-hydroxyquinolin-7-yl)methanone] | –
2 (≈ 6.2 µM) | 2 (≈ 6.2 µM) | 0.71 (≈ 2.2 µM) | 0.25 (≈ 0.776 µM) | 1 (≈ 3.1 µM) | 2 (≈ 6.2 µM) | O=C(c1ccc2cccnc2c1O)N1CCCc2ccc(F)cc21 [Example 61, (7-Fluoro-3,4-dihydroquinolin-1(2H)-yl)(8-hydroxyquinolin-7-yl)methanone] | –
1.41 (≈ 4.54 µM) | 2 (≈ 6.44 µM) | 1.41 (≈ 4.54 µM) | 0.5 (≈ 1.61 µM) | 1.41 (≈ 4.54 µM) | 1.41 (≈ 4.54 µM) | O=C(c1ccc2cccnc2c1O)N1CCC2CCCCC2C1 (stereo not shown) [Example 6, (8-Hydroxyquinolin-7-yl)(octahydroisoquinolin-2(1H)-yl)methanone] | –
2 (≈ 5.64 µM) | 1 (≈ 2.82 µM) | 4 (≈ 11.3 µM) | 0.125 (≈ 0.352 µM) | 2 (≈ 5.64 µM) | 2 (≈ 5.64 µM) | O=C(c1ccc2cccnc2c1O)N1CCCc2c(Cl)ccc(O)c21 [Example 73, (5-Chloro-8-hydroxy-3,4-dihydroquinolin-1(2H)-yl)(8-hydroxyquinolin-7-yl)methanone] | –
